In patent US20120171123A1, “USES AND COMPOSITIONS FOR TREATMENT OF RHEUMATOID ARTHRITIS” (priority 2006, published 2012):

How the values were obtained:
[1] = tested on: patients with long-standing RA; assay: Study 4 (open-label extension, adalimumab 40 mg eow + MTX): ACR response and Major Clinical Response; assay type: in vivo, human
Protocol: The following study was performed to evaluate sustained remission in patients with RA treated with adalimumab and mtx. The study was an open-label extension study, where the last visit of the preceding study was used as the screening visit for Study 4. The study design for Study 4 is described in FIG. 12. The percentage of patients remaining on treatment over time from the first dose of adalimumab remained relatively constant. 846 patients enrolled over time.
ACR response rates and Major Clinical Response (MCR) remained constant through the fourth year of adalimumab treatment. Major Clinical Response (MCR) was defined as patients maintaining an ACR70 response for at least 6 continuous months over a 2-year period. […] At the end of the 4 year time period, 79% of patients had maintained an ACR20, 61% maintained an ACR50 response, and 38% maintained an ACR 70 response.
After these trials, patients were eligible to enroll in two separate OLE studies: Study 4 and Study 5. Patients were evaluated for efficacy and safety every 3 months.
Efficacy outcomes were evaluated as observed data: DAS28; ACR 20/50/70; Tender Joint Count (TJC); Swollen Joint Count (SJC); and HAQ Disability Index. Baseline demographics and disease characteristics were similar in both Study 4 and Study 5 consistent with moderate to severe RA, as shown below in Table 64: […]

[2] = tested on: patients with long-standing RA; assay: Study I open-label extension: DAS28 and clinical remission; assay type: in vivo, human; settings: for patients in clinical remission (DAS28<2.6) / mean change from baseline in DAS28: last visit
Protocol: 217 patients who completed the blinded period and participated in the extension trial for a minimum of 6 months were allowed to adjust MTX and/or corticosteroid dosages at the discretion of the principal investigators. Dose tapering was conducted according to standard medical practice with respect to controlling disease activity
Demographic data, age, gender, disease duration, rheumatoid factor and changes in TJC, SJC, CRP, DAS28, HAQ and ACR responses were analysed. Baseline demographics and disease characteristics as well as efficacy measures at last visit (ACR 20/50/70, DAS28, HAQ) were compared between the groups. All patients, including those who discontinued from the trial, were evaluated
Patients were eligible to enroll in Study I if they met ACR criteria for diagnosis of RA. […] Efficacy outcomes were assessed at pre-specified intervals as observed data. Treatment time was calculated beginning with the first subcutaneous injection of adalimumab at any dose, excluding time on placebo. Improvements in signs and symptoms of RA were evaluated for ACR20, ACR50, and ACR70 criteria, 28-joint count Disease Activity Score (DAS28) using the CRP-based formula, and Health Assessment Questionnaire (HAQ). Patients with changes in dosage of MTX or corticosteroids were evaluated for at least 6 months; these patients were eligible for the extension study for at least 6 months and were eligible for discretionary dose tapering. Patients were monitored for adverse events (AEs) during the entire length of the study, from signed informed consent through last visit.

Q: Which “patients maintaining ACR20” value ([1]; end of 4 years) does the source give for “adalimumab: human anti-TNF mAb (HUMIRA, Abbott Laboratories), described in U.S. Pat. No. 6,090,382 as D2E7” here?
A: The value was 79%.

Q: And the “patients maintaining ACR50” value ([1]; end of 4 years)?
A: Its value is 61%.

Q: And the “patients maintaining ACR70” value ([1]; end of 4 years)?
A: Its value is 38%.

Q: And the “patients achieving Major Clinical Response (ACR70 ≧6 continuous months)” value ([1]; patients with at least 3 years of exposure)?
A: The value was 31%.

Q: What about the “patients with DAS28<2.6” value ([2]; 5 years) of the same substance?
A: The value was 52%.

Q: What about the “patients in clinical remission (DAS28<2.6)” value (shortened to “patients … (DAS28<2.6)”) ([2]; mtx and steroid decrease) of the same substance?
A: Its value is 24%.

Q: What about the “mean change from baseline in DAS28” value ([2]; mtx decrease) of the same substance?
A: The value was −2.7.

Q: And the “patients … (DAS28<2.6)” value ([2]; mtx decrease)?
A: Its value is 7.2%.

Q: What about the “mean change from baseline in DAS28” value ([2]; mtx increase) of the same substance?
A: The value was −1.7.

Q: What about the “patients … (DAS28<2.6)” value ([2]; mtx increase) of the same substance?
A: Its value is 6.7%.

Q: And the “mean change from baseline in DAS28” value ([2]; mtx no change)?
A: Its value is −2.5.

Q: What about the “patients … (DAS28<2.6)” value ([2]; mtx no change) of the same substance?
A: The value was 15.5%.

Q: What about the “mean change from baseline in DAS28” value ([2]; mtx+steroid decrease) of the same substance?
A: Its value is −3.0.

Q: And the “mean change from baseline in DAS28” value ([2]; steroid decrease)?
A: Its value is −2.9.

Q: And the “patients … (DAS28<2.6)” value ([2]; steroid decrease)?
A: The value was 21.6%.

Q: What about the “mean change from baseline in DAS28” value ([2]; steroid no change) of the same substance?
A: Its value is −2.5.

Q: And the “patients … (DAS28<2.6)” value ([2]; steroid no change)?
A: The value was 17.2%.
